In ChEMBL document CHEMBL5038673, “Novel Tricyclic Heteroaryl Compounds as IRAK4 Inhibitors for Treating Cancer, Autoimmune and Inflammatory Diseases” (ACS Med Chem Lett, 2022):

Molecular target: T1, Interleukin-1 receptor-associated kinase 4 (Homo sapiens, UniProt Q9NWZ3)
T1 sequence (Q9NWZ3 whole entry): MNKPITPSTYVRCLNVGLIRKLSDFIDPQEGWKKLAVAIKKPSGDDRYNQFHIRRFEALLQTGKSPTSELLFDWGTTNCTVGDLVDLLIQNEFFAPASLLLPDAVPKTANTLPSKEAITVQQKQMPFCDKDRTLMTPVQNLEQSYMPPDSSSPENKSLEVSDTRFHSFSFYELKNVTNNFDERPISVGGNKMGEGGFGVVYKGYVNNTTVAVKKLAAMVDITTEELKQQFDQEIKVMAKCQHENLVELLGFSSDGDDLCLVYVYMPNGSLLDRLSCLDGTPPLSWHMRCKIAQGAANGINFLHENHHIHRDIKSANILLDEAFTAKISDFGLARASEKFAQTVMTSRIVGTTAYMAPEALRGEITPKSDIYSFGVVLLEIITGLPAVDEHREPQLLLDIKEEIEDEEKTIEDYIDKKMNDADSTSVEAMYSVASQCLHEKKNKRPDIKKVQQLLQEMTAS
Test: Inhibition of IRAK4 (unknown origin) using FL- IPTSPITTTYFFFKKK peptide as substrate in presence of ATP incubated for 60 mins by fluorescence assay

CC(C)Nc1c(C(=O)NCCC2CCNC2)cnc2c1[nH]c1cc(C#N)ccc12 (stereo unspecified)
IC50: 1.9 nM
